Values after ≈ are worked out from the molar mass of the structure shown.
Columns and labels:
physchem = settings: pH 7.4, aqueous buffer, Solubility Dulbecco's PBS pH 7.4
SK-OV3 = test: Inhibition of cells growth by colorimetric assay (SRB), SK-OV3; type: cell-based
Summary of the method: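 Human tumour lines grown in RPMI 1640 with 10% FBS were seeded at 5×10^3 cells per well, left 18 hours to attach, then exposed to samples (10 to 10^−8 μg/ml) for 48 hours. Growth was quantified by sulphorhodamine B staining of TCA-fixed cells, with absorbance read at 490 nm.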

COc1c(C)cc2c(c1O)[C@@H]1C3[C@@H]4SC[C@]5(NCCc6c5[nH]c5c(C)cccc65)C(=O)COC[C@@H](c5c6c(c(C)c(OC(C)=O)c54)OCO6)N3[C@@H](O)[C@H](C2)N1C (stereo partly shown) [Compound 36]
solubility (physchem): 26 µM (≈ 20.4 µg/mL)
GI50 (SK-OV3; Homo sapiens, SK-OV-3, 48 h, SK-OV3, 48 hours exposure, SRB): 0.0507 µM
CC50 (SK-OV3; Homo sapiens, SK-OV-3, 48 h, read-out: LC50, SK-OV3, 48 hours exposure, SRB): 13 µM
TGI (SK-OV3; SK-OV3, 48 hours exposure, SRB): 2.05E−07 Molar

— patent US7763615B2, “Ecteinascidin analogs for use as antitumour agents” (priority 2001, dated 2010)
